Results from ChEMBL document CHEMBL1150873, “A new lysine derivative and new 3-bromopyrrole carboxylic acid derivative from two marine sponges” (J Nat Prod, 1998).
Values after ≈ are worked out from the molar mass of the structure shown.

Assays:
Artemia = assay: (§1) Toxicity in brine shrimp; assay type: organism-based; conditions: in vivo
[1] = as §1; assay type: organism-based; conditions: artemia, in vivo
P388 = assay: Cytotoxicity against mouse P388 cells; assay type: functional, cell-based

| Compound | Activity (Artemia) | LC50 [1] [µg/mL] | IC50 (P388) [µg/mL] |
| --- | --- | --- | --- |
| O=C1CCNC(=O)c2[nH]ccc21 [ALDISIN] | Not Active |  |  |
| O=C1CCNC(=O)c2[nH]c(Br)cc21 | Not Active |  |  |
| O=C1NCC(O)n2cc(Br)cc21 (stereo not drawn) | Not Active |  |  |
| C=C(C)[C@H]1CCC[C@@]2(C)CCC[C@@](C)(NC=O)[C@@H]12 |  | 50 (≈ 200 µM) | 1.2 (≈ 4.81 µM) |
| [C-]#[N+][C@]1(C)CCC[C@]2(C)CCC[C@H](C(=C)C)[C@@H]21 |  |  | 8.3 (≈ 35.9 µM) |
| O=C(O)/C1=N/CCCC[C@@H](C(=O)O)N1 | Not Active |  |  |
| C=C(C)[C@H]1CCC[C@@]2(C)CCC[C@@](C)(SC#N)[C@@H]12 |  | 50 (≈ 190 µM) |  |
